The text below walks through data of patent US9489013B2, “C6-azaspiro iminothiadiazine dioxides as bace inhibitors, compositions, and their use” (Merck Sharp & Dohme Corp., priority 2012, dated 2016).

Assay [1] concerns the target soluble human BACE1 catalytic domain (Homo sapiens (Human), UniProt P56817). In words: BACE1 HTRF FRET Assay. The format is biochemical. As to conditions: Ki calculated from IC50 using the Cheng-Prusoff equation; QSY7-APPswe-Eu substrate, pH 5.0. The procedure: A homogeneous time-resolved FRET assay can be used to determine IC50 values for inhibitors of the soluble human BACE1 catalytic domain. […] This substrate contains an N-terminal QSY7 moiety that serves as a quencher of the C-terminal Europium fluorophore (620 nm Em). […] Inhibition of BACE cleavage of the QSY7-APP^swe-Eu substrate by inhibitors is manifested as a suppression of 620 nm fluorescence. […] The reactions are incubated at 30° C. for 1.5 hours. The 620 nm fluorescence is then read on a Rubystar HTRF plate reader (BMG Labtechnologies) using a 50 millisecond delay followed by a 400 millisecond acquisition time window. Inhibitor IC50 values are derived from non-linear regression analysis of concentration response curves.

Assay [2] deals with purified human autoBACE-2 (Homo sapiens (Human), UniProt Q9Y5Z0). In words: BACE-2 Assay (BACE-HTRF assay). In kind it is biochemical. As to conditions: Ki calculated from IC50 using the Cheng-Prusoff equation, pH 5.0, read-out: BACE2 Ki. As to the method:
Inhibitor IC50's at purified human autoBACE-2 are determined in a time-resolved endpoint proteolysis assay that measures hydrolysis of the QSY7-[…]-Eu-amide FRET peptide substrate (BACE-HTRF assay). […] Inhibitor compounds, prepared at 3× the desired final concentration in 1×BACE assay buffer (20 mM sodium acetate pH 5.0, 10% glycerol, 0.1% Brij-35) supplemented with 7.5% DMSO are pre-incubated with an equal volume of autoBACE-2 enzyme diluted in 1×BACE assay buffer (final enzyme concentration 1 nM) in black 384-well NUNC plates for 30 minutes at 30° C. […] DMSO is present at 5% final concentration in the assay. Following laser excitation of sample wells at 320 nm, the fluorescence signal at 620 nm is collected for 400 ms following a 50 μs delay on a RUBYstar HTRF plate reader (BMG Labtechnologies). Raw RFU data is normalized to maximum (1.0 nM BACE/DMSO) and minimum (no enzyme/DMSO) RFU values. […] The Ki values are calculated from the IC50 using the Cheng-Prusoff equation.

The mark [3] stands for this setting: QSY7-EISEVNLDAEFC-Eu-amide substrate.

Read-outs that look alike come from different tables or passages of the source.

purified human autoBACE-2, sequence (Q9Y5Z0 63-473 limits assumed): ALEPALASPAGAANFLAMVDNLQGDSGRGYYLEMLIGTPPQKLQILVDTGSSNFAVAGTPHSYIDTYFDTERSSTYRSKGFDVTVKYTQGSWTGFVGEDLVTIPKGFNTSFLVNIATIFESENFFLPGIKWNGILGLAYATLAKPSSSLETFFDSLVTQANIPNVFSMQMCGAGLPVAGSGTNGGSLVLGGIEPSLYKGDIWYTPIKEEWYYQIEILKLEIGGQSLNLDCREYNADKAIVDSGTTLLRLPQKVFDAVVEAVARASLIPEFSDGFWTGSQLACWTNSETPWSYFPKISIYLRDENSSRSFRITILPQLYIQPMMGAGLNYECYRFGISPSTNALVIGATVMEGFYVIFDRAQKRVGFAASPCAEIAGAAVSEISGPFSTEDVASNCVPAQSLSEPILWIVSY
soluble human BACE1 catalytic domain, sequence (P56817 75-416): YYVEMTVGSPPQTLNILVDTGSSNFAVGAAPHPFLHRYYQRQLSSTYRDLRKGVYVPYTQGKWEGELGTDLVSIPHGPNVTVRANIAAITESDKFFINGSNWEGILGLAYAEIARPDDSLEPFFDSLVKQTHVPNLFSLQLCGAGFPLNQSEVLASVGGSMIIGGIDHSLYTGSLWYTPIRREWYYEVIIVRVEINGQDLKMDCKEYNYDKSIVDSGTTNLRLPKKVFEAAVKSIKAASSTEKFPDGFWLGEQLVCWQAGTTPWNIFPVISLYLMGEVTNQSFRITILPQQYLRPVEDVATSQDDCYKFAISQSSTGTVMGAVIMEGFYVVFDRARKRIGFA

Regarding `COc1ccc(C(=O)Nc2ccc(F)c([C@@]3(C)NC(=N)N(C)S(=O)(=O)[C@@]34CCN(Cc3cscn3)C4)c2)nc1` [Example 8], the Ki in assay [1] is 3 nM.
For the compound `COc1ccc(C(=O)Nc2ccc(F)c([C@@]3(C)NC(=N)N(C)S(=O)(=O)[C@@]34CCN(CC3CCOC3)C4)c2)nc1` (stereo partly shown) [Example 9], the Ki in assay [2] (setting [3]) was 2 nM; in assay [1], 1 nM.
`COc1ccc(C(=O)Nc2ccc(F)c([C@@]3(C)NC(=N)N(C)S(=O)(=O)[C@@]34CCN(Cc3ccccn3)C4)c2)nc1` [Example 10]: in assay [1], the Ki was 2 nM.
On to `COc1ccc(C(=O)Nc2ccc(F)c([C@@]3(C)NC(=N)N(C)S(=O)(=O)[C@@]34CCN(Cc3cccnc3)C4)c2)nc1` [Example 11], for which the Ki in assay [2] (setting [3]) is 12 nM; in assay [1], 2 nM.
In the same order, the values of `COc1ccc(C(=O)Nc2ccc(F)c([C@@]3(C)NC(=N)N(C)S(=O)(=O)[C@@]34CCN(CC3CC3)C4)c2)nc1` [Example 12] are 7 nM and 2 nM.
As for `COc1ccc(C(=O)Nc2ccc(F)c([C@@]3(C)NC(=N)N(C)S(=O)(=O)[C@@]34CCN(Cc3cnco3)C4)c2)nc1` [Example 14], the figures for the Ki in assay [2] (setting [3]) and in assay [1] were 9 nM and 3 nM, respectively.
In the same order, the values of `COc1ccc(C(=O)Nc2ccc(F)c([C@@]3(C)NC(=N)N(C)S(=O)(=O)[C@@]34CCN(Cc3cncnc3)C4)c2)nc1` [Example 15] are 17 nM and 4 nM.
Take `COc1ccc(C(=O)Nc2ccc(F)c([C@@]3(C)NC(=N)N(C)S(=O)(=O)[C@@]34CCN(Cc3cnn(C)c3)C4)c2)nc1` [Example 16]: the Ki in assay [1] is 4 nM.
Consider `COc1ccc(C(=O)Nc2ccc(F)c([C@@]3(C)NC(=N)N(C)S(=O)(=O)[C@@]34CCN(CC3CC(OC)C3)C4)c2)nc1` (stereo partly shown) [Example 17], for which, in assay [1], the Ki was 4 nM.
`CN1C(=N)N[C@](C)(c2cc(NC(=O)c3ccc(F)cn3)ccc2F)[C@]2(CCN(Cc3ccncc3)C2)S1(=O)=O` [Example 29]: the Ki in assay [2] (setting [3]) was 9 nM; in assay [1], 8 nM.
As for `CN1C(=N)N[C@](C)(c2cc(NC(=O)c3ccc(F)cn3)ccc2F)[C@]2(CCN(Cc3cnco3)C2)S1(=O)=O` [Example 30], the Ki in assay [2] (setting [3]) was 5 nM; in assay [1], 4 nM.
In the same order, the values of `CN1C(=N)N[C@](C)(c2cc(NC(=O)c3ccc(F)cn3)ccc2F)[C@]2(CCN(CC3CC3)C2)S1(=O)=O` [Example 31] are 5 nM and 2 nM.
Consider `CN1C(=N)N[C@](C)(c2cc(NC(=O)c3ccc(F)cn3)ccc2F)[C@]2(CCN(Cc3cscn3)C2)S1(=O)=O` [Example 33], for which the inhibition constant (Ki) in assay [2] (setting [3]) was 5 nM; in assay [1], 3 nM.
With `COC1CC(CN2CC[C@@]3(C2)[C@@](C)(c2cc(NC(=O)c4ccc(F)cn4)ccc2F)NC(=N)N(C)S3(=O)=O)C1` (stereo partly shown) [Example 34], the inhibition constant (Ki) in assay [2] (setting [3]) is 10 nM; in assay [1], 6 nM.
On to `CN1C(=N)N[C@](C)(c2cc(NC(=O)c3ccc(F)cn3)ccc2F)[C@]2(CCN(Cc3cccnc3)C2)S1(=O)=O` [Example 35], for which the inhibition constant Ki in assay [2] (setting [3]) is 6 nM; in assay [1] it was 2 nM.
Take `CN1C(=N)N[C@](C)(c2cc(NC(=O)c3ccc(F)cn3)ccc2F)[C@]2(CCN(Cc3cocn3)C2)S1(=O)=O` [Example 37]: the inhibition constant Ki was 5 nM in assay [2] (setting [3]) and 2 nM in assay [1].
With `CN1C(=N)N[C@](C)(c2cc(NC(=O)c3ccc(F)cn3)ccc2F)[C@]2(CCN(Cc3cncnc3)C2)S1(=O)=O` [Example 38], the Ki in assay [2] (setting [3]) was 7 nM; in assay [1] it was 4 nM.
Turning to `CCCCN1CC[C@@]2(C1)[C@@](C)(c1cc(NC(=O)c3ccc(F)cn3)ccc1F)NC(=N)N(C)S2(=O)=O` [Example 39], the figures for the Ki in assay [2] (setting [3]) and in assay [1] were 3 nM and 2 nM, respectively.
Consider `CN1C(=N)N[C@](C)(c2cc(NC(=O)c3ccc(F)cn3)ccc2F)[C@]2(CCN(Cc3cnn(C)c3)C2)S1(=O)=O` [Example 40], for which the Ki in assay [2] (setting [3]) is 10 nM; in assay [1], 4 nM.
As to `CN1C(=N)N[C@](C)(c2cc(NC(=O)c3ccc(F)cn3)ccc2F)[C@]2(CCN(S(=O)(=O)CC3CCCO3)C2)S1(=O)=O` (stereo partly shown) [Example 82], the values for the Ki in assay [2] (setting [3]) and in assay [1] were 10 nM and 4 nM, respectively.
In the case of `CN1C(=N)N[C@](C)(c2cc(NC(=O)c3ccc(F)cn3)ccc2F)[C@@]2(CCN(S(=O)(=O)c3ccccc3)C2)S1(=O)=O` [Example 91], the figures for the Ki in assay [2] (setting [3]) and in assay [1] were 6 nM and 16 nM, respectively.
With `COCC(=O)Nc1ccc(F)c([C@@]2(C)NC(=N)N(C)S(=O)(=O)[C@@]23CCN(Cc2ccccc2)C3)c1` [Example 96], the Ki in assay [2] (QSY7-[…]-Eu-amide substrate) is 25 nM; in assay [1], 22 nM.

As a reminder, the Ki is a dissociation constant, usually derived from enzyme kinetics or from competition with a known ligand.
